Experimental data as given in patent publication US5362497A, “Transdermal therapeutic composition” (priority 1989, dated 1994).
One block for each molecule: values may come before it.

Columns and labels:
Type in all cases: in vivo, SD rats
[1] = tested on: hypertensive reaction induced by angiotensin I; assay: Transdermal absorption test: inhibition of hypertensive reaction induced by angiotensin I in rats
Procedure: Using 9-week-old male SD rats, the transdermal therapeutic tape (6 mg as compound (I)/rat) was applied to a clipped area (6 cm^2) of the abdominal skin and the area of exposure was covered by the occluded dressing method. The transdermal absorption effect was evaluated daily by monitoring the inhibition rate (%) against hypertensive reaction induced by angiotensin I. Angiotensin I was administered in an intravenous dose of 300 ng/kg (rats).
Using 9-week-old male SD rats, the transdermal therapeutic tape (9 mg as compound (I)/rat) was applied to a clipped area (6 cm^2) of the abdominal skin and the area of exposure was covered by the occluded dressing method.

[2] = TRH concentration in plasma after transdermal application (radioimmunoassay); conditions: for concentration at 0.5 h: 0.5 h after administration; for concentration at 1 h: 1 h after administration; for concentration at 2 h: 2 h after administration; for concentration at 4 h: 4 h after administration; for concentration at 6 h: 6 h after administration
Procedure: The above transdermal therapeutic composition was put on a clipped abdomen of male SD rats (7-week-old, 240 to 270 g, 4 heads) and fixed with a surgical tape. After 0.5, 1, 2, 4, 6 and 24 hours, the blood was collected from the tail vein. After the blood was treated with heparin, 50 μl of a reagent (aqueous solution containing 0.01 g/l of 8-hydroxyquinoline sulfate, 0.15 g/l of EDTA-2Na and 0.05 g/l of Tween 20) was added to 0.5 ml of the blood to separate the plasma. The TRH concentration in the plasma was determined by the below-mentioned radioimmunoassay. To 100 μl of the separated plasma were added 100 μl of 0.7% bovine serum albumin, 100 μl of anti-TRH antibody (500-fold dilution) and 100 μl of ^125 I-labeled TRH (about 10000 dpm), and the resulting mixture was incubated at 4° C. for 3 days. The secondary antibody (100 μl of anti-γ-globulin serum and 100 μl of normal rabbit serum) was then added, and the mixture was incubated at 4° C. for 1 day. The supernatant was removed by centrifugation at 3000 rpm, and the radioactivity of the precipitate was determined by a γ counter.
On the other hand, 10% polyvinyl alcohol gel (pH 4, buffered with 0.01M citric acid-0.01M disodium phosphate) containing 2% TRH was formulated to make the diameter and thickness 3.2 cm and 0.1 cm respectively (sticking area: 8 cm^2; TRH content: 16 mg), and applied to SD rats (4 heads) in the same manner as mentioned above. The TRH concentration in the plasma was determined by the radioimmunoassay in the same manner as mentioned above.

[3] = Molsidomine concentration in plasma after transdermal application (HPLC)
Procedure: The above transdermal therapeutic composition was put on a clipped abdomen of male SD rats (7-week-old, 240 to 270 g, 5 heads) and fixed with a surgical tape. After 1, 2, 4, 6 and 24 hours, the blood was collected from the tail vein, and the concentration of molsidomine in the plasma was determined by HPLC.
On the other hand, 0.5 g of molsidomine was dissolved in 3 g of propylene glycol, and 0.35 g of the solution was absorbed into a rayon web of nonwoven fabric and applied to SD rats in the same manner as mentioned above.

[4] = Vinpocetine concentration in plasma after transdermal application (HPLC)
Procedure: The above transdermal therapeutic composition was put on a clipped abdomen of male SD rats (7-week-old, 240 to 270 g, 4 heads) and fixed with a surgical tape. Just before the administration and after 0.5, 1, 2, 4, 6 and 24 hours, the blood was collected from the tail vein. After the blood was treated with heparin, the plasma was separated. The concentration of vinpocetine in the plasma was determined by HPLC after the plasma was cleaned up by Sep-Pak C18 (Waters).
On the other hand, 0.35 g of 4% aqueous suspension of vinpocetine was absorbed into a web of nonwoven fabric and applied to SD rats in the same manner as mentioned above.

[5] = Example 1 tape, 6 mg as compound (I)/rat
[6] = Example 2 tape, procedure of Example 1
[7] = Example 3 tape, procedure of Example 1
[8] = Example 4 tape, 9 mg as compound (I)/rat
[9] = rat, plasma, topical or ocular, Example 6 composition
[10] = rat, plasma, topical or ocular, comparison: 10% polyvinyl alcohol gel pH 4, 2% TRH (16 mg), 8 cm^2

transdermal absorption [1, 5]: sufficiently absorbed transdermally | transdermal absorption [1, 6]: sufficiently absorbed transdermally | transdermal absorption [1, 7]: sufficiently absorbed transdermally | transdermal absorption [1, 8]: sufficiently absorbed transdermally
Structure (SMILES): O=C(O)CN1C(=O)[C@@H](N[C@@H](CCCCC2CCNCC2)C(=O)O)CSc2ccccc21 [Compound (I), (R)-3-[(S)-1-carboxy-5-(4-piperidyl)pentyl]amino-4-oxo-2,3,4,5-tetrahydro-1,5-benzothiazepine-5-acetic acid]
duration of effect (inhibition of hypertensive reactivity induced by angiotensin I) [1, 5]: > 24 h | initiation time of 80% inhibition against hypertensive reactivity induced by angiotensin I ([1]; Example 1 tape, 6 mg as compound (I)/rat, abdominal skin 6 cm^2, angiotensin I 300 ng/kg i.v.): five | inhibition against hypertensive reactivity induced by angiotensin I ([1]; Example 1 tape, 6 mg as compound (I)/rat, five hours after administration): 80% | duration of effect (inhibition of hypertensive reaction by angiotensin I) [1, 6]: > 24 h | initiation time of 80% inhibition against hypertensive reaction by angiotensin I [1, 6]: three | inhibition against hypertensive reaction by angiotensin I ([1]; Example 2 tape, three hours after administration): 80% | inhibition against hypertensive reaction by angiotensin I ([1]; Example 3 tape, five hours after administration): 80% | duration of effect (inhibition of hypertensive reaction by angiotensin I) [1, 7]: > 24 h | initiation time of 80% inhibition against hypertensive reaction by angiotensin I [1, 7]: five | duration of effect (inhibition of hypertensive reactivity by angiotensin I) [1, 8]: > 24 h | initiation time of 80% inhibition against hypertensive reactivity by angiotensin I ([1]; Example 4 tape, 9 mg as compound (I)/rat, abdominal skin 6 cm^2): five | inhibition against hypertensive reactivity by angiotensin I ([1]; Example 4 tape, 9 mg as compound (I)/rat, five hours after administration): 80%

Structure (SMILES): NC(=O)[C@@H]1CCCN1C(=O)[C@H](Cc1cnc[nH]1)NC(=O)[C@@H]1CCC(=O)N1 [TRH, L-pyroglutamyl-L-histidyl-L-prolinamide]
TRH concentration in the plasma (in words) ([2]; Example 6 composition): rapidly increased | TRH concentration in the plasma (in words) ([2]; comparison: 10% polyvinyl alcohol gel pH 4, 2% TRH (16 mg), 8 cm^2): very low | concentration at 0.5 h [2, 9]: 59 ng/mL | concentration at 1 h [2, 9]: 88.9 ng/mL | concentration at 2 h [2, 9]: 110 ng/mL | concentration at 4 h [2, 9]: 391 ng/mL | concentration at 6 h [2, 9]: 326 ng/mL | concentration at 24 h ([2]; rat, plasma, topical or ocular, Example 6 composition, 24 h after administration): 82.4 ng/mL | Cmax ([2]; rat, plasma, topical or ocular, Example 6 composition, read-out: maximum concentration in the plasma): ~400 ng/mL | Tmax ([2]; rat, plasma, topical or ocular, Example 6 composition, read-out: time of maximum concentration in the plasma): 4 h | concentration at 0.5 h [2, 10]: 8.3 ng/mL | concentration at 1 h [2, 10]: 8 ng/mL | concentration at 2 h [2, 10]: 4.5 ng/mL | concentration at 4 h [2, 10]: 3 ng/mL | concentration at 6 h [2, 10]: 1.8 ng/mL

concentration of molsidomine in the plasma ([3]; comparison: solution of 0.5 g molsidomine in 3 g propylene glycol, 0.35 g on nonwoven fabric): below the detection limit | concentration at 1 h ([3]; rat, plasma, topical or ocular, Example 5 composition, 1 h after administration): 123 ng/mL | concentration at 2 h ([3]; rat, plasma, topical or ocular, Example 5 composition, 2 h after administration): 235 ng/mL | concentration at 4 h ([3]; rat, plasma, topical or ocular, Example 5 composition, 4 h after administration): 451 ng/mL | concentration at 6 h ([3]; rat, plasma, topical or ocular, Example 5 composition, 6 h after administration): 322 ng/mL | concentration at 24 h ([3]; rat, plasma, topical or ocular, Example 5 composition, 24 h after administration): 169 ng/mL
Structure (SMILES): CCOC(=O)[N-]c1cn(N2CCOCC2)n[o+]1 [molsidomine, N-ethoxycarbonyl-3-morpholinosydnonimine]
concentration of molsidomine in the blood (in words) ([3]; Example 5 composition): a high concentration of molsidomine in the blood was observed

Average concentration in plasma ([4]; Example 7 composition, just before administration): 0 ng/mL | concentration of vinpocetine in the plasma ([4]; comparison: 0.35 g of 4% aqueous suspension of vinpocetine on nonwoven fabric): below the detection limit | concentration at 0.5 h ([4]; rat, plasma, topical or ocular, Example 7 composition, 0.5 h after administration): 149 ng/mL | concentration at 1 h ([4]; rat, plasma, topical or ocular, Example 7 composition, 1 h after administration): 155 ng/mL | concentration at 2 h ([4]; rat, plasma, topical or ocular, Example 7 composition, 2 h after administration): 80.1 ng/mL | concentration at 4 h ([4]; rat, plasma, topical or ocular, Example 7 composition, 4 h after administration): 60.7 ng/mL | concentration at 6 h ([4]; rat, plasma, topical or ocular, Example 7 composition, 6 h after administration): 74.1 ng/mL | concentration at 24 h ([4]; rat, plasma, topical or ocular, Example 7 composition, 24 h after administration): 64.3 ng/mL
Structure (SMILES): CCOC(=O)C1=C[C@]2(CC)CCCN3CCc4c(n1c1ccccc41)[C@@H]32 [vinpocetine, apovincamic acid ethyl ester]
concentration of vinpocetine in the plasma (in words) ([4]; Example 7 composition): rapidly increased, and the required concentration was maintained during a period of 24 hours
